{"source": "patent US20260007728A1", "about": "“COMBINATION THERAPIES INVOLVING L-ASPARAGINASE” (Jazz Pharmaceuticals Ireland Ltd., priority 2022, published 2026)", "molecules": {"B1": {"name": "Erwinase: Erwinia chrysanthemi L-asparaginase type II product commercially approved for ALL (protein, UniProt P06608 22-348, looked up)", "L-asparaginase": "ADKLPNIVILATGGTIAGSAATGTQTTGYKAGALGVDTLINAVPEVKKLANVKGEQFSNMASENMTGDVVLKLSQRVNELLARDDVDGVVITHGTDTVEESAYFLHLTVKSDKPVVFVAAMRPATAISADGPMNLLEAVRVAGDKQSRGRGVMVVLNDRIGSARYITKTNASTLDTFKANEEGYLGVIIGNRIYYQNRIDKLHTTRSVFDVRGLTSLPKVDILYGYQDDPEYLYDAAIQHGVKGIVYAGMGAGSVSVRGIAGMRKAMEKGVVVIRSTRTGNGIVPPDEELPGLVSDSLNPAHARILLMLALTRTSDPKVIQEYFHTY"}, "B2": {"name": "JZP341: pasylated L-asparaginase; long acting Erwinia asparaginase (protein, UniProt P06608 22-348, looked up)", "L-asparaginase": "ADKLPNIVILATGGTIAGSAATGTQTTGYKAGALGVDTLINAVPEVKKLANVKGEQFSNMASENMTGDVVLKLSQRVNELLARDDVDGVVITHGTDTVEESAYFLHLTVKSDKPVVFVAAMRPATAISADGPMNLLEAVRVAGDKQSRGRGVMVVLNDRIGSARYITKTNASTLDTFKANEEGYLGVIIGNRIYYQNRIDKLHTTRSVFDVRGLTSLPKVDILYGYQDDPEYLYDAAIQHGVKGIVYAGMGAGSVSVRGIAGMRKAMEKGVVVIRSTRTGNGIVPPDEELPGLVSDSLNPAHARILLMLALTRTSDPKVIQEYFHTY", "modifications": "PASylated"}}, "key": {"[1]": {"tested_on": "cell lines with low and high ASNS expression", "assay": "Bliss synergy of pathway inhibitors with JZP-458 (cytotoxicity readout)", "format": "cell-based", "settings": "in combination with JZP-458", "procedure": "Combination study BLISS matrix-Bliss Assay Protocol: Cells were plated in 384-well plates in 45 μl cell culture medium at a density of, that is, at numbers of cells per well as indicated in FIG. 24. For each cell line, the optimal cell density was determined a priori to obtain an optimal assay window. Plated cells were incubated in a humidified incubator with 5% CO2 at 37° C. 24 hours post-plating, 5 μl of compound dilution was added to each well and plates were further incubated for another 72 hours after which 25 μl of ATPlite 1 Step (PerkinElmer, Groningen, The Netherlands) solution was added to each well. Luminescence was recorded on an Envision multimode reader (PerkinElmer, Waltham, MA, U.S.A.). For determination of Bliss independence scores, two drugs were added in increasing concentrations in a 6×6 matrix. […] The percent viability for each drug either alone or in combination was determined relative to control samples and the Bliss independence scores for each combination were determined as described (Liu, Q., et al., Stat Biopharm. Res. 10: 112; 2018). […]"}, "[2]": {"tested_on": "BCL2 expression in triple hit lymphoma line WSU-DLCL2", "assay": "qPCR gene expression after compound treatment", "format": "cell-based", "procedure": "Cell Culture: Cell culture medium: RPMI 1640 medium (#2198761, Thermo Fisher) supplemented with 10% fetal calf serum (#S00AZ, BioWest) and 1% pen/strep (#15140-122, Thermo Fisher). At day-1, 900 μl cell suspension was seeded in 24-well plates (#662165, Greiner Bio-One) at a density of 128,000 cells/well. At day 0, 100 μl compound was added in three different concentrations to reach a final concentration of 0.316×IC50, 1×IC50, and 3.16×IC50 (unless indicated otherwise). To the control samples, 100 μl 20 mM HEPES+3.16% DMSO was added instead of compound. When the compound is prepared in HEPES instead of DMSO, 20 mM HEPES without DMSO was added to the cells. The cells were collected at 6 hours, 24 hours and 48 hours after addition of the compound and were transferred to a 96-well deep well plate and centrifuged for 5 min at 340×g. Prior to the collection of the cells microscopic pictures were taken from the untreated (control) cells. After removing the medium, 200 μl RNA protect (#76526, Qiagen) was added to the cell pellet and the cells were stored at −80° C.\nRNA isolation: Total RNA was isolated with the SV96 Total RNA Isolation System kit (#Z3505, Promega) according to manufacturer's instructions. The procedure includes a ‘RNAse free DNAse’ gDNA removal step.\nDetermining the RNA concentration: RNA concentrations were determined with the RiboGreen (#R11490, Thermo Fisher) kit according to manufacturer's instructions.\ncDNA synthesis: RNA was reverse transcribed into cDNA using the Quantitect Reverse Transcript Kit (#205313, Qiagen) according to manufacturer's instructions. This procedure includes a second ‘RNAse free DNAse’ gDNA removal step, ensuring the complete removal of gDNA from the samples. For each time point (6 h, 24 h, or 48 h) identical volumes of RNA were used for cDNA synthesis. After synthesis, cDNA is diluted with nuclease free water to obtain approximately similar cDNA concentrations per sample.\nqPCR: 1) 50° C. for 10 min (Uracil-DNA glycosylase ([…]) step to remove all potential traces of amplicon DNA from previous qPCRs); 2) 5 min UDP inactivation/denaturation at 95° C.; 3) 40 cycles of 10s denaturation at 95° C., 20s annealing at 60° C., and 30s extension at 72° C.; and 4) Dissociation curve to determine the melting temperature of the qPCR amplicon.\nqPCR Data Analysis: Cq and Tm raw data values are determined by the BioRad CFX manager software from the PCR machine. For every PCR sample that produced a Cq value the corresponding melting temperature of the PCR amplicon (Tm) was checked to identify samples that generated dual or a specific PCR products. A PCR product is regarded a specific when its Tm is >0.5° C. different from that the Tm of the specific PCR amplicon, in this case the Cq value is removed and not used for further data analysis. Cq values were than normalized by subtracting the (mean) Cq value of the two housekeeping genes (ACTB & RPS18) from the Cq value of the gene of interest. The normalized value is called DCq. The Cq difference between sample and the control (DDCq) was calculated by subtracting DCq control from DCq sample. The fold difference in expression between the control (no compound) and the compound treated sample is than calculated according the 2^-DDCq method."}, "[3]": {"assay": "Aggregation of asparaginase batches", "format": "physicochemical", "settings": "product batches", "from_the_text": "In some embodiments, the recombinant L-asparaginase of the disclosure has greater purity than other L-asparaginases. […] In some embodiments, the amount of aggregation of the recombinant L-asparaginase is less than 10%, 9%, 8%, 7%, 6%, 5%, 4%, 3%, 2%, 1%, 0.5%, 0.25%, 0.2%, 0.1%, or 0.01%. In some embodiments, the amount of aggregation seen in compositions containing the recombinant L-asparaginase is less than 1-10%. In some embodiments, the amount of aggregation seen in compositions containing the recombinant L-asparaginase is less than 10%. In some embodiments, the amount of aggregation of the recombinant L-asparaginase is less than 9%. In some embodiments, the amount of aggregation of the recombinant L-asparaginase is less than 8%. In some embodiments, the amount of aggregation of the recombinant L-asparaginase is less than 7%. In some embodiments, the amount of aggregation of the recombinant L-asparaginase is less than 6%. In some embodiments, the amount of aggregation of the recombinant L-asparaginase is less than 5%. In some embodiments, the amount of aggregation of the recombinant L-asparaginase is less than 4%. In some embodiments, the amount of aggregation of the recombinant L-asparaginase is less than 3%. In some embodiments, the amount of aggregation of the recombinant L-asparaginase is less than 2%. […]"}, "[4]": {"assay": "Half life of asparaginases", "settings": "in vivo"}, "[5]": {"assay": "In vivo tolerability study in naïve SCID mice", "settings": "150 U/kg in combination with venetoclax and R-CHOP constituents", "from_the_text": "Sensitivity to asparaginase and 11 chemotherapeutic agents (carfilzomib, doxorubicin, rapamycin, ibrutinib, cyclophosphamide, prednisolone, metformin, venetoclax, navitoclax, rituximab and vincristine) determined in 8 lymphoma lines, including diffuse large B-cell and Burkitt lymphomas. The investigated lymphoma lines are sensitive to asparagine depletion within the clinically achievable range. Expression of decisive genes (BCL2, BCL6, BCL2L1, MYC, ASNS) determined in 8 lymphoma lines (FIGS. 11 and 12). Increased expression of BCL2 served as marker for resistance of ibrutinib and rapamycin in triple hit lymphoma (FIGS. 11 and 12). Increased expression of ASNS served as marker for resistance of carfilzomib and asparaginase in Burkitt lymphoma (FIGS. 11 and 12). Identified combination agents that enhanced asparaginase activity in vitro include synergy of JZP458 and rituximab, venetoclax and ibrutinib in lymphoma lines (DLBCL) (see FIG. 13, FIG. 15, and FIG. 17). […] In vivo tolerability study of long acting Erwinia Asparaginase."}}}
{"molecule": "CO[C@H]1C[C@@H]2CC[C@@H](C)[C@@](O)(O2)C(=O)C(=O)N2CCCC[C@H]2C(=O)O[C@H]([C@H](C)C[C@@H]2CC[C@@H](OCCO)[C@H](OC)C2)CC(=O)[C@H](C)/C=C(\\C)[C@@H](O)[C@@H](OC)C(=O)[C@H](C)C[C@H](C)/C=C/C=C/C=C/1C", "note": "[everolimus]", "values": [{"measurement": "Bliss sum score compared with PI3K inhibitors and MEK inhibitors", "setting": "[1]", "value": "increased"}]}
{"molecule": "C=CC(=O)N1CCC[C@@H](n2nc(-c3ccc(Oc4ccccc4)cc3)c3c(N)ncnc32)C1", "note": "[ibrutinib]", "values": [{"measurement": "increase of BCL2 expression", "setting": "[2]", "value": 1.25, "unit": "fold"}]}
{"molecule": "CO[C@H]1C[C@@H]2CC[C@@H](C)[C@@](O)(O2)C(=O)C(=O)N2CCCC[C@H]2C(=O)O[C@H]([C@H](C)C[C@@H]2CC[C@@H](O)[C@H](OC)C2)CC(=O)[C@H](C)/C=C(\\C)[C@@H](O)[C@@H](OC)C(=O)[C@H](C)C[C@H](C)/C=C/C=C/C=C/1C", "note": "[rapamycin]", "values": [{"measurement": "increase of BCL2 expression", "setting": "[2]", "value": 1, "unit": "fold"}]}
{"molecule": "B1", "values": [{"measurement": "aggregation", "setting": "[3]", "value": "about 6%"}]}
{"molecule": "B2", "values": [{"measurement": "half life t½", "setting": "[4]", "value": "~16", "unit": "h"}, {"measurement": "tolerability", "setting": "[5]", "value": "tolerated"}]}
